Experimental data: US20080269241A1, “BICYCLIC AMINOPROPYL TETRAHYDRO-PYRAZOLO-PYRIDINE MODULATORS OF CATHEPSIN S” (priority 2007, published 2008)

Target: T1, human cathepsin S (CatS) (Homo sapiens, UniProt P25774)
T1 construct: made in house; host or cells: baculovirus system (insect cells)
Assay: Recombinant human cathepsin S (CatS) fluorogenic substrate inhibition assay
Format: biochemical
Details: recombinant human CatS, 10 μM Z-Valine-Valine-Arginine-AMC, pH 5.0; average of results obtained; read-out: CatS IC50
Description: Recombinant human cathepsin S (CatS) was expressed in the baculovirus system and purified in one step with a thiopropyl-sepharose column. […] The assay is run in 150 mM sodium acetate pH 5.0 containing 1.5 mM DTT and 150 mM NaCl. […] Measurements are taken every min for 20 min. The rate is calculated from the slope of the increase in fluorescence and the percent inhibition is calculated from this.

T1 sequence (P25774 115-331): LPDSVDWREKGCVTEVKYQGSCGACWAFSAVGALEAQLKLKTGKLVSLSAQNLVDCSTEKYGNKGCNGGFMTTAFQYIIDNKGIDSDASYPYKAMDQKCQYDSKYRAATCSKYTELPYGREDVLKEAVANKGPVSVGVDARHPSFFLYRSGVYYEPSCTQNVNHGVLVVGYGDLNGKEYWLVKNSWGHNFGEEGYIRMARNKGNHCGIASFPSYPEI

Compound | IC50
CS(=O)(=O)N1CCc2c(c(-c3ccc(Cl)c(NC(=O)c4ccc(C#N)cc4)c3)nn2CCCN2CCN(c3cccc(Cl)c3)CC2)C1 [Example 201, N-[2-Chloro-5-(1-{3-[4-(3-chloro-phenyl)-piperazin-1-yl]-propyl}-5-methanesulfonyl-4,5,6,7-tetrahydro-1H-pyrazolo[4,3-c]pyridin-3-yl)-phenyl]-4-cyano-benzamide] | 580 nM
CS(=O)(=O)N1CCc2c(c(-c3ccc(Cl)c(NS(=O)(=O)Cc4ccccc4)c3)nn2CCCN2CCN(c3cccc(Cl)c3)CC2)C1 [Example 202, N-[2-Chloro-5-(1-{3-[4-(3-chloro-phenyl)-piperazin-1-yl]-propyl}-5-methanesulfonyl-4,5,6,7-tetrahydro-1H-pyrazolo[4,3-c]pyridin-3-yl)-phenyl]-C-phenyl-methanesulfonamide] | 680 nM
CS(=O)(=O)N1CCc2c(c(-c3ccc(Cl)c(NS(=O)(=O)/C=C/c4ccccc4)c3)nn2CCCN2CCN(c3cccc(Cl)c3)CC2)C1 [Example 203, 2-Phenyl-ethenesulfonic acid [2-chloro-5-(1-{3-[4-(3-chloro-phenyl)-piperazin-1-yl]-propyl}-5-methanesulfonyl-4,5,6,7-tetrahydro-1H-pyrazolo[4,3-c]pyridin-3-yl)-phenyl]-amide] | 690 nM
CS(=O)(=O)N1CCc2c(c(-c3ccc(Cl)c(NS(=O)(=O)c4ccccc4)c3)nn2CCCN2CCN(c3cccc(Cl)c3)CC2)C1 [Example 204, N-[2-Chloro-5-(1-{3-[4-(3-chloro-phenyl)-piperazin-1-yl]-propyl}-5-methanesulfonyl-4,5,6,7-tetrahydro-1H-pyrazolo[4,3-c]pyridin-3-yl)-phenyl]-benzenesulfonamide] | 700 nM
CN(C)Cc1cc(-c2nn(CCCN3CCC(N4CCCC4=O)CC3)c3c2CN(S(C)(=O)=O)CC3)ccc1C(F)(F)F [Example 206, 1-(1-{3-[3-(3-Dimethylaminomethyl-4-trifluoromethyl-phenyl)-5-methanesulfonyl-4,5,6,7-tetrahydro-pyrazolo[4,3-c]pyridin-1-yl]-propyl}-piperidin-4-yl)-pyrrolidin-2-one] | 2520 nM
CS(=O)(=O)N1CCc2c(c(-c3ccc(Cl)c(CNc4ccccc4)c3)nn2CCCN2CCC(N3CCCC3=O)CC2)C1 [Example 207, 1-(1-{3-[3-(4-Chloro-3-phenylaminomethyl-phenyl)-5-methanesulfonyl-4,5,6,7-tetrahydro-pyrazolo[4,3-c]pyridin-1-yl]-propyl}-piperidin-4-yl)-pyrrolidin-2-one] | 2250 nM
Cc1ccc(NCc2cc(-c3nn(CCCN4CCC(N5CCCC5=O)CC4)c4c3CN(S(C)(=O)=O)CC4)ccc2Cl)cc1 [Example 208, 1-[1-(3-{3-[4-Chloro-3-(p-tolylamino-methyl)-phenyl]-5-methanesulfonyl-4,5,6,7-tetrahydro-pyrazolo[4,3-c]pyridin-1-yl}-propyl)-piperidin-4-yl]-pyrrolidin-2-one] | 280 nM
COc1ccc(NCc2cc(-c3nn(CCCN4CCC(N5CCCC5=O)CC4)c4c3CN(S(C)(=O)=O)CC4)ccc2Cl)cc1 [Example 209, 1-{1-[3-(3-{4-Chloro-3-[(4-methoxy-phenylamino)-methyl]-phenyl}-5-methanesulfonyl-4,5,6,7-tetrahydro-pyrazolo[4,3-c]pyridin-1-yl)-propyl]-piperidin-4-yl}-pyrrolidin-2-one] | 660 nM
CS(=O)(=O)N1CCc2c(c(-c3ccc(Cl)c(CNc4cccc(-c5ccccc5)c4)c3)nn2CCCN2CCC(N3CCCC3=O)CC2)C1 [Example 210, 1-[1-(3-{3-[3-(Biphenyl-3-ylaminomethyl)-4-chloro-phenyl]-5-methanesulfonyl-4,5,6,7-tetrahydro-pyrazolo[4,3-c]pyridin-1-yl}-propyl)-piperidin-4-yl]-pyrrolidin-2-one] | 630 nM
CC(C)c1cccc(NCc2cc(-c3nn(CCCN4CCC(N5CCCC5=O)CC4)c4c3CN(S(C)(=O)=O)CC4)ccc2Cl)c1 [Example 211, 1-{1-[3-(3-{4-Chloro-3-[(3-isopropyl-phenylamino)-methyl]-phenyl}-5-methanesulfonyl-4,5,6,7-tetrahydro-pyrazolo[4,3-c]pyridin-1-yl)-propyl]-piperidin-4-yl}-pyrrolidin-2-one] | 370 nM
CN(C)c1ccc2c(n1)n(C1CCN(CC(O)Cn3nc(-c4ccc(C(F)(F)F)c(CN)c4)c4c3CCN(S(C)(=O)=O)C4)CC1)c(=O)n2C (stereo not shown) [Example 216, 3-(1-{3-[3-(3-Aminomethyl-4-trifluoromethyl-phenyl)-5-methanesulfonyl-4,5,6,7-tetrahydro-pyrazolo[4,3-c]pyridin-1-yl]-2-hydroxy-propyl}-piperidin-4-yl)-5-dimethylamino-1-methyl-1,3-dihydro-imidazo[4,5-b]pyridin-2-one] | 600 nM
CS(=O)(=O)c1csc(C(=O)NCc2cc(-c3nn(CC(O)CN4CCC(N5CCCC5=O)CC4)c4c3CN(S(C)(=O)=O)CC4)ccc2C(F)(F)F)c1Cl (stereo not shown) [Example 217, 3-Chloro-4-methanesulfonyl-thiophene-2-carboxylic acid 5-(1-{2-hydroxy-3-[4-(2-oxo-pyrrolidin-1-yl)-piperidin-1-yl]-propyl}-5-methanesulfonyl-4,5,6,7-tetrahydro-1H-pyrazolo[4,3-c]pyridin-3-yl)-2-trifluoromethyl-benzylamide] | 600 nM
CC1CCCN(CC(=O)NCc2cc(-c3nn(CCCN4CCC(N5CCCC5=O)CC4)c4c3CN(S(C)(=O)=O)CC4)ccc2C(F)(F)F)C1 (stereo not shown) [Example 223, N-[5-(5-Methanesulfonyl-1-{3-[4-(2-oxo-pyrrolidin-1-yl)-piperidin-1-yl]-propyl}-4,5,6,7-tetrahydro-1H-pyrazolo[4,3-c]pyridin-3-yl)-2-trifluoromethyl-benzyl]-2-(3-methyl-piperidin-1-yl)-acetamide] | 700 nM
CS(=O)(=O)N1CCc2c(c(-c3ccc(Cl)c(NC(=O)c4ccc([N+](=O)[O-])cc4)c3)nn2CCCN2CCN(c3cccc(Cl)c3)CC2)C1 [Example 226, N-[2-Chloro-5-(1-{3-[4-(3-chloro-phenyl)-piperazin-1-yl]-propyl}-5-methanesulfonyl-4,5,6,7-tetrahydro-1H-pyrazolo[4,3-c]pyridin-3-yl)-phenyl]-4-nitro-benzamide] | 760 nM
COc1ccc(C(=O)Nc2cc(-c3nn(CCCN4CCN(c5cccc(Cl)c5)CC4)c4c3CN(S(C)(=O)=O)CC4)ccc2Cl)cc1 [Example 228, N-[2-Chloro-5-(1-{3-[4-(3-chloro-phenyl)-piperazin-1-yl]-propyl}-5-methanesulfonyl-4,5,6,7-tetrahydro-1H-pyrazolo[4,3-c]pyridin-3-yl)-phenyl]-4-methoxy-benzamide] | 760 nM
CCc1ccc(C(=O)Nc2cc(-c3nn(CCCN4CCN(c5cccc(Cl)c5)CC4)c4c3CN(S(C)(=O)=O)CC4)ccc2Cl)cc1 [Example 230, N-[2-Chloro-5-(1-{3-[4-(3-chloro-phenyl)-piperazin-1-yl]-propyl}-5-methanesulfonyl-4,5,6,7-tetrahydro-1H-pyrazolo[4,3-c]pyridin-3-yl)-phenyl]-4-ethyl-benzamide] | 780 nM
CS(=O)(=O)N1CCc2c(c(-c3ccc(Cl)c(NC(=O)c4ccc(C(F)(F)F)cc4)c3)nn2CCCN2CCN(c3cccc(Cl)c3)CC2)C1 [Example 233, N-[2-Chloro-5-(1-{3-[4-(3-chloro-phenyl)-piperazin-1-yl]-propyl}-5-methanesulfonyl-4,5,6,7-tetrahydro-1H-pyrazolo[4,3-c]pyridin-3-yl)-phenyl]-4-trifluoromethyl-benzamide] | 830 nM
CS(=O)(=O)N1CCc2c(c(-c3ccc(Cl)c(NC(=O)c4ccc(F)cc4)c3)nn2CCCN2CCN(c3cccc(Cl)c3)CC2)C1 [Example 234, N-[2-Chloro-5-(1-{3-[4-(3-chloro-phenyl)-piperazin-1-yl]-propyl}-5-methanesulfonyl-4,5,6,7-tetrahydro-1H-pyrazolo[4,3-c]pyridin-3-yl)-phenyl]-4-fluoro-benzamide] | 840 nM
CN(C)CC(=O)NCc1cc(-c2nn(CC(O)CN3CCC(N4CCCC4)CC3)c3c2CN(S(C)(=O)=O)CC3)ccc1C(F)(F)F (stereo not shown) [Example 243, 2-Dimethylamino-N-(5-{1-[2-hydroxy-3-(4-pyrrolidin-1-yl-piperidin-1-yl)-propyl]-5-methanesulfonyl-4,5,6,7-tetrahydro-1H-pyrazolo[4,3-c]pyridin-3-yl}-2-trifluoromethyl-benzyl)-acetamide] | 5300 nM
CC(C)CC(=O)NCc1cc(-c2nn(CC(O)CN3CCC(N4CCCC4)CC3)c3c2CN(S(C)(=O)=O)CC3)ccc1C(F)(F)F (stereo not shown) [Example 248, N-(5-{1-[2-Hydroxy-3-(4-pyrrolidin-1-yl-piperidin-1-yl)-propyl]-5-methanesulfonyl-4,5,6,7-tetrahydro-1H-pyrazolo[4,3-c]pyridin-3-yl}-2-trifluoromethyl-benzyl)-3-methyl-butyramide] | 120 nM
CC(C)CC(=O)NCc1cc(-c2nn(CC(O)CN3CCC(N4CCOC4=O)CC3)c3c2CN(S(C)(=O)=O)CC3)ccc1C(F)(F)F (stereo not shown) [Example 252, N-[5-(1-{2-Hydroxy-3-[4-(2-oxo-oxazolidin-3-yl)-piperidin-1-yl]-propyl}-5-methanesulfonyl-4,5,6,7-tetrahydro-1H-pyrazolo[4,3-c]pyridin-3-yl)-2-trifluoromethyl-benzyl]-3-methyl-butyramide] | 140 nM
CC(C)CC(=O)NCc1cc(-c2nn(CC(O)CN3CCC(N4CC(O)CC4=O)CC3)c3c2CN(S(C)(=O)=O)CC3)ccc1C(F)(F)F (stereo not shown) [Example 253, N-[5-(1-{2-Hydroxy-3-[4-(4-hydroxy-2-oxo-pyrrolidin-1-yl)-piperidin-1-yl]-propyl}-5-methanesulfonyl-4,5,6,7-tetrahydro-1H-pyrazolo[4,3-c]pyridin-3-yl)-2-trifluoromethyl-benzyl]-3-methyl-butyramide] | 90 nM
